Data taken from ChEMBL document CHEMBL6115028, “An Amazing 30-Year Journey around the DABO Family: A Medicinal Chemistry Lesson on a Versatile Class of Non-nucleoside HIV-1 Reverse Transcriptase Inhibitors” (J Med Chem, 2025).
One block for each molecule: values may come before it.

How the values were obtained:
[1] = Selectivity index, ratio of CC50 for human MT4 cells to EC50 for antiviral activity against HIV1 infected in human MT4 cells; assay type: toxicity, cell-based; settings: read-out: Ratio CC50/EC50
[2] = test system: MT4; assay: Cytotoxicity against human MT4 cells assessed as reduction in cell growth incubated for 3 days by CellTiter-Glo luminescent assay; assay type: functional; settings: MT4, 72 h, time 3 day
[3] = test system: Human immunodeficiency virus 1; assay: Antiviral activity against HIV-1 IIIB infected in human C8166 cells; assay type: functional, organism-based; settings: Human immunodeficiency virus 1, IIIB
[4] = test system: Human immunodeficiency virus 1; assay: Antiviral activity against wild-type HIV-1 IIIB infected in human MT4 cells assessed as reduction in virus-induced cytopathic effect incubated for 5 days by MTT assay; assay type: functional, organism-based; settings: Human immunodeficiency virus 1, IIIB, MT4, 120 h
[5] = test system: MT4; assay: Cytotoxicity against human MT4 cells assessed as reduction in cell growth after 5 days by MTT assay; assay type: functional; settings: MT4, 120 h, time 5 day
[6] = Cytotoxicity against african green monkey Vero cells assessed as reduction in cell viability measured after 72 hrs by MTT assay; assay type: toxicity, cell-based; settings: chlorocebus sabaeus
[7] = test system: Human immunodeficiency virus 1; assay: Antiviral activity against HIV-1 NL4-3 infected in human MT2 cells assessed as reduction in viral replication assessed as inhibition of viral growth incubated for 72 hrs by ELISA; assay type: functional, organism-based; settings: Human immunodeficiency virus 1, NL4-3, MT2, 72 h
[8] = test system: Human immunodeficiency virus 1; assay: Antiviral activity against HIV-1 NL4-3 harboring infected Y181C mutant infected in human MT4 cells assessed as reduction in viral replication; assay type: functional, organism-based; settings: Human immunodeficiency virus 1, NL4-3, MT4
[9] = test system: Human immunodeficiency virus 1; assay: Antiviral activity against wild type HIV-1 NL4-3 infected in human MT4 cells assessed as reduction in viral replication; assay type: functional, organism-based; settings: Human immunodeficiency virus 1, NL4-3, MT4
[10] = test system: C8166; assay: Cytotoxicity against human C8166 cells assessed as reduction in cell viability; assay type: functional
[11] = Selectivity index, ratio of CC50 for cytotoxicity against human MT2 cells to EC50 for antiviral activity against HIV-1 IIIB infected in human MT2 cells; assay type: toxicity, cell-based; settings: read-out: Ratio CC50/EC50
[12] = test system: Human immunodeficiency virus 1; assay: Antiviral activity against HIV-1 IIIB infected in human C8166 cells assessed as reduction in virus -induced cytopathic effect measured after 48 hrs by CellTiter-Glo Luminescent cell viability assay; assay type: functional, organism-based; settings: Human immunodeficiency virus 1, IIIB, C8166, 48 h
[13] = test system: Human immunodeficiency virus 2; assay: Antiviral activity against HIV-2 ROD infected in human MT4 cells assessed as virus-induced cytopathic effect incubated for 5 days by MTT assay; assay type: functional, organism-based; settings: Human immunodeficiency virus 2, ROD, MT4, 120 h
[14] = Cytotoxicity against African green monkey Vero cells assessed as reduction in cell viability incubated for 72 hrs by MTT assay; assay type: toxicity, cell-based; settings: chlorocebus sabaeus
[15] = test system: Human immunodeficiency virus 1; assay: Antiviral activity against HIV-1 harboring protease V82F mutant infected in human C8166 cells assessed as inhibition of viral replication measured for 72 hrs by spectrophotometric MTT assay; assay type: functional, organism-based; settings: Human immunodeficiency virus 1, C8166, 72 h
[16] = test system: Human immunodeficiency virus 1; assay: Antiviral activity against wild type HIV-1 NL4-3 infected in human MT4 cells assessed as reduction in viral replication measured for 72 hrs by ELISA analysis; assay type: functional, organism-based; settings: Human immunodeficiency virus 1, NL4-3, MT4, 72 h
[17] = test system: Human immunodeficiency virus 1; assay: Antiviral activity against HIV1 IIIB infected in human MT4 cells assessed as reduction in virus-induced cytopathic effect incubated for 4 days by MTT assay; assay type: functional, organism-based; settings: Human immunodeficiency virus 1, IIIB, MT4, 96 h
[18] = test system: Human immunodeficiency virus 1; assay: Antiviral activity against wild type HIV-1 IIIB harboring Y181C/K103N double mutant infected in human MT4 cells assessed as reduction in cytopathic effect measured after 4 days by MTT assay; assay type: functional, organism-based; settings: Human immunodeficiency virus 1, IIIB, MT4, 96 h
[19] = test system: Human immunodeficiency virus 1; assay: Antiviral activity against […] infected in human MT4 cells assessed as reduction in cytopathic effect measured after 4 days by MTT assay; assay type: functional, organism-based; settings: Human immunodeficiency virus 1, IIIB, MT4, 96 h
[20] = test system: MT4; assay: Cytotoxicity against human MT4 cells assessed as reduction in cell viability incubated for 4 days by MTT assay; assay type: functional; settings: MT4, 96 h, time 4 day
[21] = test system: MT4; assay: Cytotoxicity against human MT4 cells; assay type: functional
[22] = read-out: ED50 (the source's name)

Compound: Cc1c(Cc2c(Cl)cccc2Cl)nc(SCC(=O)Nc2ccc(Br)cc2)[nH]c1=O
selectivity ratio [1]: > 1330 | CC50 [2]: > 243000 nM | EC50 [3]: 180 nM

Compound: CCCNc1nc(Cc2c(F)cccc2F)c(C)c(=O)[nH]1
EC50 [4]: 20 nM | CC50 [5]: > 200000 nM

Compound: CCC(C)Sc1nc(O)cc(C(C)c2c(F)cccc2F)n1 (configuration not stated)
selectivity ratio [1]: > 6670 | CC50 at 72 h [6]: > 200000 nM

Compound: CCC(C)Sc1nc(O)cc(Cc2ccccc2)n1 (configuration not stated)
EC50 [7]: 80 nM

Compound: Cc1c(OP(=O)(N[C@@H](C)C(=O)OC(C)(C)C)Oc2ccccc2)nc(N(C)C)nc1C(C)c1c(F)cccc1F (some centres not stated)
EC50 [8]: 1000 nM | EC50 ([9]; read-out: EC50): 8 nM

EC50 [9, 22]: 2700 nM
Compound: CCSCSc1nc(=O)c(CC)c(Cc2cccc3ccccc23)[nH]1

Compound: Cc1c(C(C)c2c(F)cccc2F)nc(NC(C)C)[nH]c1=O (configuration not stated)
EC50 [4]: 20 nM | CC50 [5]: > 200000 nM

Compound: CC(C)CCSc1nc(Cc2c(F)cccc2F)cc(=O)[nH]1
CC50 at 72 h [6]: > 200000 nM | CC50 [10]: > 200000 nM | selectivity ratio [11]: > 4000 | EC50 [12]: 50 nM

Compound: CCc1c(Cc2ccccc2)nc(SC(C)CC)[nH]c1=O (configuration not stated)
EC50 [7]: 40 nM

Compound: CC(c1cc(O)nc(SC2CCCCC2)n1)c1c(F)cccc1F (configuration not stated)
selectivity ratio [1]: > 6670 | CC50 at 72 h [6]: > 200000 nM

EC50 [9, 22]: 50 nM
Compound: CCOCn1c(Cc2cccc3ccccc23)c(CC)c(=O)[nH]c1=O

EC50 [3]: 78 nM
Compound: CC(C)c1c(Cc2ccccc2)nc(SCC(=O)c2ccc(F)cc2)[nH]c1=O
CC50 [2]: 186000 nM | EC50 [13]: 32200 nM

Compound: CSCSc1nc(Cc2c(Cl)cccc2Cl)cc(=O)[nH]1
CC50 at 72 h [14]: 48100 nM | EC50 [15]: 1300 nM

EC50 [16]: 7 nM
Compound: Cc1c(C(C)c2c(F)cccc2F)nc(SCc2ccc(C#N)cc2)[nH]c1=O (configuration not stated)

Compound: Cc1c(O)nc(SCC(C)C)nc1C(C)c1c(F)cccc1F (configuration not stated)
selectivity ratio [1]: 28600 | CC50 at 72 h [6]: 200000 nM

EC50 [3]: 70 nM
Compound: CCc1c(Cc2ccccc2)nc(SCC(=O)c2ccc(F)cc2)[nH]c1=O
CC50 [2]: 240000 nM | EC50 [13]: 16300 nM

Compound: Cc1c(O)nc(SCC(C)C)nc1Cc1ccccc1
selectivity ratio [1]: 162 | EC50 [17]: 800 nM

Compound: CCOC(=O)[C@H](C)NP(=O)(Oc1ccccc1)Oc1nc(N(C)C)nc(C(C)c2c(F)cccc2F)c1C (some centres not stated)
EC50 [8]: 1000 nM | EC50 ([9]; read-out: EC50): 6 nM

EC50 [3]: 370 nM
Compound: COc1ccc(C(=O)CSc2nc(Cc3ccccc3)c(C)c(=O)[nH]2)cc1
CC50 [2]: > 290000 nM | EC50 [13]: 420 nM

Compound: Cc1c(Cc2c(Cl)cccc2Cl)nc(SCC(=O)Nc2ccc(F)c(F)c2)[nH]c1=O
selectivity ratio [1]: > 387 | CC50 [2]: > 265000 nM | EC50 [3]: 690 nM

Compound: Cc1c(C(C)c2c(F)cccc2F)nc(N(C)C)[nH]c1=O (racemic)
EC50 [18]: 900 nM | EC50 [19]: 700 nM | CC50 [20]: > 100000 nM

EC50 [3]: 30 nM
Compound: COc1ccc(C(=O)CSc2nc(Cc3ccccc3)c(C(C)C)c(=O)[nH]2)cc1
CC50 [2]: 203000 nM | EC50 [13]: 13400 nM

Compound: CCC(C)Sc1nc(Cc2c(F)cccc2I)cc(=O)[nH]1 (configuration not stated)
CC50 at 72 h [6]: > 200000 nM | CC50 [10]: > 200000 nM | selectivity ratio [11]: > 4000 | EC50 [12]: 50 nM

Compound: CCC(C)Sc1nc(Cc2ccccc2)c(C(C)C)c(=O)[nH]1 (configuration not stated)
EC50 [7]: 100 nM

Compound: CSCSc1nc(Cc2c(F)cccc2Cl)cc(=O)[nH]1
CC50 at 72 h [14]: 55300 nM | EC50 [15]: 400 nM

Compound: CC(=O)c1ccc(Cn2cc(CSc3nc(Cc4c(Cl)cccc4Cl)c(C)c(=O)[nH]3)nn2)cc1
CC50 [21]: 32500 nM

Compound: Cc1c(Cc2c(Cl)cccc2Cl)nc(SCC(=O)Nc2ccc([N+](=O)[O-])cc2)[nH]c1=O
selectivity ratio [1]: 264 | CC50 [2]: 45800 nM | EC50 [3]: 990 nM

Compound: CCC(C)Sc1nc(O)c(C)c(Cc2ccccc2)n1 (configuration not stated)
EC50 [7]: 200 nM

Compound: CCc1c(O)nc(SCSC)nc1Cc1ccccc1
EC50 [7]: 800 nM

Compound: Cc1c(O)nc(SC2CCCCC2)nc1C(C)c1c(F)cccc1F (configuration not stated)
selectivity ratio [1]: > 33300 | CC50 at 72 h [6]: > 200000 nM

EC50 [9, 22]: 370 nM
Compound: CCc1c(Cc2cccc3ccccc23)n(CSC)c(=O)[nH]c1=O

Compound: Cc1c(Cc2c(Cl)cccc2Cl)nc(SCc2cn(Cc3ccc(S(N)(=O)=O)cc3)nn2)[nH]c1=O
CC50 [21]: 95500 nM

Compound: Oc1cc(Cc2ccccc2)nc(SC2CCCCC2)n1
selectivity ratio [1]: > 412 | EC50 [17]: 800 nM
